Results reported in patent US20240382471A1, “GLUCAGON-LIKE PEPTIDE-1 RECEPTOR MODULATORS AND USES THEREOF” (HEPAGENE THERAPEUTICS (HK) LIMITED, priority 2021, published 2024).

target: GLP1R (Homo sapiens, UniProt P43220); experiment: GLP1R cAMP assay (HTRF cAMP detection, agonist activity); type: cell-based; set-up: host or cells: Flp-In-293; settings: Flp-In-293-GLP1R cells, 30 min at 37° C., read-out: EC50 (nM) Assay 1
Method: GLP1R-mediated agonist activity was determined with a cell-based functional assay utilizing an HTRF (Homogeneous Time-Resolved Fluorescene) cAMP detection kit that measures CAMP levels in the cell. Reagents and equipment used in the assay are listed below, followed by the protocol.
• 1) Cell Line: Flp-In-293-GLP1R (constructed by Pharmaron Beijing Co., Ltd) • 2) Complete Medium: DMEM+10% FBS+1×Penicillin-Streptomycin+200 μg/mL HB • 3) Assay Buffer: 1×HBSS+20 mM HEPES+0.1% BSA+500 μM IBMX
• a) Seed Flpin-293-GLP1R cells at 20,000 cells/well into 384 well assay plate (6007680-50, PE) using complete medium. • b) Prepare 4×compound working solution with assay buffer. • c) Add 5 μL 4×compound working solution into cell plate, incubate 30 min at 37° C. • d) Dilute Eu-cAMP tracer (1/50) with lysis buffer and add 10 μl/well to assay plate. • e) Dilute Ulight-anti-cAMP (1/150) with lysis buffer and add 10 μl/well to assay plate. • f) Incubate 1 h at RT. • g) Read the plate at wavelengths of 665 nm and 615 nm on Envision 2105 plate reader.
• 3.1% Activity is calculated as follow:
% Activity=100−(Signalcmpd−SignalAve_PC)/(SignalAve_VC−SignalAve_PC)×100. • 3.2 Calculate EC50 and Plot effect-dose curve of cmpds:
Y=Bottom+(Top−Bottom)/(1+10^((Log EC50−X)*Hill Slope)) • X: log of agonist concentration; Y: % Activity.

GLP1R, sequence (P43220 24-463, species assumed): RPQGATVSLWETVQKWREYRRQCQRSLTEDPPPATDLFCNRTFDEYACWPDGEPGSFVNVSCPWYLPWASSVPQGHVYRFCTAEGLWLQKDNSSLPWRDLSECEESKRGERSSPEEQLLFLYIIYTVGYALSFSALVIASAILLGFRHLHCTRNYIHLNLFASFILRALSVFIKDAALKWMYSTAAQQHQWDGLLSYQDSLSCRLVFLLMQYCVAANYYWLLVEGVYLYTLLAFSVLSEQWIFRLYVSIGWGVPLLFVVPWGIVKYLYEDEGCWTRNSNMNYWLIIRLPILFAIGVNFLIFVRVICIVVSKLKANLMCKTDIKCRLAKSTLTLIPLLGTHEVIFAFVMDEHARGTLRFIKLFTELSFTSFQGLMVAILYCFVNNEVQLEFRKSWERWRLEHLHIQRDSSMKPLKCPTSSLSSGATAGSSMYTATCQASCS

Molecule	EC50 [nM]
2-((3-(6-((4-cyano-2-fluorobenzyl)oxy)pyridin-2-yl)-3,8-diazabicyclo[3.2.1]octan-8-yl)methyl)-1-((oxetan-2-yl)methyl)-1H-benzo[d]imidazole-6-carboxylic acid [Compound 2-30]	0.375
N#Cc1ccc(COc2ccnc(C34CCN(Cc5nc6ccc(C(=O)O)cc6n5C[C@@H]5CCO5)CC3C4)c2)c(F)c1 (single isomer, unassigned) [Compound 1-2-A]	> 4
N#Cc1ccc(COc2ccnc(C34CCN(Cc5nc6ccc(C(=O)O)cc6n5C[C@@H]5CCO5)CC3C4)c2)c(F)c1 (single isomer, unassigned) [Compound 1-2-B]	> 4
N#Cc1ccc(COc2cccc(C34CCN(Cc5nc6ccc(C(=O)O)cc6n5C[C@@H]5CCO5)CC3C4)c2)c(F)c1 (single isomer, unassigned) [Compound 1-9-A]	1.01
N#Cc1ccc(COc2cccc(C34CCN(Cc5nc6ccc(C(=O)O)cc6n5C[C@@H]5CCO5)CC3C4)c2)c(F)c1 (single isomer, unassigned) [Compound 1-9-B]	1.05
N#Cc1ccc(COc2ccnc(C34CCN(Cc5nc6ccc(C(=O)O)cc6n5C[C@@H]5CCO5)CC3C4)n2)c(F)c1 (single isomer, unassigned) [Compound 1-11-A]	0.995
N#Cc1ccc(COc2ccnc(C34CCN(Cc5nc6ccc(C(=O)O)cc6n5C[C@@H]5CCO5)CC3C4)n2)c(F)c1 (single isomer, unassigned) [Compound 1-11-B]	0.017
COc1cc(C#N)ccc1COc1cccc(C23CCN(Cc4nc5ccc(C(=O)O)cc5n4C[C@@H]4CCO4)CC2C3)n1 (stereo partly drawn) [Compound 1-6, 2-((6-(6-((4-cyano-2-methoxybenzyl)oxy)pyridin-2-yl)-3-azabicyclo[4.1.0]heptan-3-yl)methyl)-1-(((S)-oxetan-2-yl)methyl)-1H-benzo[d]imidazole-6-carboxylic acid]	0.003
N#Cc1ccc(COc2cccc(C34CCN(Cc5nc6ccc(C(=O)O)cc6n5C[C@@H]5CCO5)CC3C4)n2)cc1F (stereo partly drawn) [Compound 1-7, 2-((6-(6-((4-cyano-3-fluorobenzyl)oxy)pyridin-2-yl)-3-azabicyclo[4.1.0]heptan-3-yl)methyl)-1-(((S)-oxetan-2-yl)methyl)-1H-benzo[d]imidazole-6-carboxylic acid]	0.175
N#Cc1ccc(COc2ccnc(C34CCN(Cc5nc6ccc(C(=O)O)cc6n5C[C@@H]5CCO5)CC3C4)n2)c(F)c1 (stereo partly drawn) [Compound 1-11, 2-((6-(4-((4-cyano-2-fluorobenzyl)oxy)pyrimidin-2-yl)-3-azabicyclo[4.1.0]heptan-3-yl)methyl)-1-(((S)-oxetan-2-yl)methyl)-1H-benzo[d]imidazole-6-carboxylic acid]	0.079
N#Cc1ccc(COc2cccc(N3CC4CCC(C3)N4Cc3nc4ccc(C(=O)O)cc4n3C[C@@H]3CCO3)n2)c(F)c1 [Compound 2, 2-((−3-(6-((4-cyano-2-fluorobenzyl)oxy)pyridin-2-yl)-3,8-diazabicyclo[3.2.1]octan-8-yl)methyl)-1-(((S)-oxetan-2-yl)methyl)-1H-benzo[d]imidazole-6-carboxylic acid]	1.22
N#Cc1ccc(COc2cccc(N3C4CC3CN(Cc3nc5ccc(C(=O)O)cc5n3C[C@@H]3CCO3)C4)n2)c(F)c1 [Compound 2-2, 2-((6-(6-((4-cyano-2-fluorobenzyl)oxy)pyridin-2-yl)-3,6-diazabicyclo[3.1.1]heptan-3-yl)methyl)-1-(((S)-oxetan-2-yl)methyl)-1H-benzo[d]imidazole-6-carboxylic acid]	> 4
O=C(O)c1ccc2nc(CN3C4CC3CN(c3cccc(OCc5ccc(Cl)cc5F)n3)C4)n(C[C@@H]3CCO3)c2c1 [Compound 2-3, 2-((−3-(6-((4-chloro-2-fluorobenzyl)oxy)pyridin-2-yl)-3,6-diazabicyclo[3.1.1]heptan-6-yl)methyl)-1-(((S)-oxetan-2-yl)methyl)-1H-benzo[d]imidazole-6-carboxylic acid]	> 4
N#Cc1ccc(COc2cccc(N3CC4CCC(C3)N4Cc3nc4ccc(C(=O)O)cc4n3C[C@@H]3CCO3)n2)cc1 [Compound 2-4, 2-[(3-{6-[(4-cyanophenyl)methoxy]pyridin-2-yl}-3,8-diazabicyclo[3.2.1]octan-8-yl)methyl]-3-[(2S)-oxetan-2-ylmethyl]-1,3-benzodiazole-5-carboxylic acid]	> 4
O=C(O)c1ccc2nc(CN3C4CCC3CN(c3cccc(OCc5ccncc5)n3)C4)n(C[C@@H]3CCO3)c2c1 [Compound 2-5, 3-[(2S)-oxetan-2-ylmethyl]-2-({3-[6-(pyridin-4-ylmethoxy)pyridin-2-yl]-3,8-diazabicyclo[3.2.1]octan-8-yl}methyl)-1,3-benzodiazole-5-carboxylic acid]	> 4
O=C(O)c1ccc2nc(CN3C4CCC3CN(c3cccc(OCc5ccc(Cl)cc5F)n3)C4)n(C[C@@H]3CCO3)c2c1 [Compound 2-6, 2-[(3-{6-[(4-chloro-2-fluorophenyl)methoxy]pyridin-2-yl}-3,8-diazabicyclo[3.2.1]octan-8-yl)methyl]-3-[(2S)-oxetan-2-ylmethyl]-1,3-benzodiazole-5-carboxylic acid]	0.643
O=C(O)c1ccc2nc(CN3C4CCC3CN(c3cccc(OCc5ccc(F)cc5F)n3)C4)n(C[C@@H]3CCO3)c2c1 [Compound 2-7, 2-((−3-(6-((2,4-difluorobenzyl)oxy)pyridin-2-yl)-3,8-diazabicyclo[3.2.1]octan-8-yl)methyl)-1-(((S)-oxetan-2-yl)methyl)-1H-benzo[d]imidazole-6-carboxylic acid]	> 4
Cc1ccc(COc2cccc(N3CC4CCC(C3)N4Cc3nc4ccc(C(=O)O)cc4n3C[C@@H]3CCO3)n2)c(F)c1 [Compound 2-8, 2-[(3-{6-[(2-fluoro-4-methylphenyl)methoxy]pyridin-2-yl}-3,8-diazabicyclo[3.2.1]octan-8-yl)methyl]-3-[(2S)-oxetan-2-ylmethyl]-1,3-benzodiazole-5-carboxylic acid]	> 4
N#Cc1ccc(COc2cccc(N3CC4CCC(C3)N4Cc3nc4ccc(C(=O)O)cc4n3CC3CCO3)n2)c(F)c1 (stereo not shown) [Compound 2-9, 2-((−3-(6-((4-cyano-2-fluorobenzyl)oxy)pyridin-2-yl)-3,8-diazabicyclo[3.2.1]octan-8-yl)methyl)-1-(oxetan-2-ylmethyl)-1H-benzo[d]imidazole-6-carboxylic acid]	> 4
N#Cc1ccc(COc2cccc(N3CC4CCC(C3)N4Cc3nc4ccc(C(=O)O)cc4n3C[C@@H]3CCCO3)n2)c(F)c1 [Compound 2-10, 2-((−3-(6-((4-cyano-2-fluorobenzyl)oxy)pyridin-2-yl)-3,8-diazabicyclo[3.2.1]octan-8-yl)methyl)-1-(((S)-tetrahydrofuran-2-yl)methyl)-1H-benzo[d]imidazole-6-carboxylic acid]	> 4
N#Cc1ccc(COc2cccc(N3CC4CCC(C3)N4Cc3nc4ccc(C(=O)O)cc4n3CC3CCOC3)n2)c(F)c1 (stereo not shown) [Compound 2-11, 2-[(3-{6-[(4-cyano-2-fluorophenyl)methoxy]pyridin-2-yl}-3,8-diazabicyclo[3.2.1]octan-8-yl)methyl]-3-(oxolan-3-ylmethyl)-1,3-benzodiazole-5-carboxylic acid]	> 4
N#Cc1ccc(COc2cccc(N3CC4CCC(C3)N4Cc3nc4ccc(C(=O)O)cc4n3Cc3ncco3)n2)c(F)c1 [Compound 2-12, 2-((−3-(6-((4-cyano-2-fluorobenzyl)oxy)pyridin-2-yl)-3,8-diazabicyclo[3.2.1]octan-8-yl)methyl)-1-(oxazol-2-ylmethyl)-1H-benzo[d]imidazole-6-carboxylic acid]	> 4
O=C(O)c1ccc2nc(CN3C4CCC3CN(c3cccc(OCc5ccncc5F)n3)C4)n(C[C@@H]3CCO3)c2c1 [Compound 2-13, 2-[(3-{6-[(3-fluoropyridin-4-yl)methoxy]pyridin-2-yl}-3,8-diazabicyclo[3.2.1]octan-8-yl)methyl]-3-[(2S)-oxetan-2-ylmethyl]-1,3-benzodiazole-5-carboxylic acid]	> 4
CS(=O)(=O)c1ccc(COc2cccc(N3CC4CCC(C3)N4Cc3nc4ccc(C(=O)O)cc4n3C[C@@H]3CCO3)n2)cc1 [Compound 2-14, 2-((−3-(6-((4-(methylsulfonyl)benzyl)oxy)pyridin-2-yl)-3,8-diazabicyclo[3.2.1]octan-8-yl)methyl)-1-(((S)-oxetan-2-yl)methyl)-1H-benzo[d]imidazole-6-carboxylic acid]	> 4
O=C(O)c1ccc2nc(CN3C4CCC3CN(c3cccc(OCc5ccc(C(F)(F)F)cc5F)n3)C4)n(C[C@@H]3CCO3)c2c1 [Compound 2-15, 2-((−3-(6-((2-fluoro-4-(trifluoromethyl)benzyl)oxy)pyridin-2-yl)-3,8-diazabicyclo[3.2.1]octan-8-yl)methyl)-1-(((S)-oxetan-2-yl)methyl)-1H-benzo[d]imidazole-6-carboxylic acid]	> 4
